Results as given in patent publication US20110098219A1, “System for Curing Hepatic Cancer with Leptin” (KAOHSIUNG MEDICAL UNIVERSITY, priority 2009, published 2011).

Legend:
liver cancer patients = settings: prior researches, FIG. 19B; P value 0.171; cited from earlier work
liver cancer cells = test: Flow cytometry, cell cycle of liver cancer cells; assay type: cell-based; settings: MPA only, 24 hours
Method: Please refer to FIG. 6A and FIG. 6B, which are views showing effect of MPA+leptin on cell cycle. As shown in the figures, for further recognizing role of MPA+leptin for liver cancer cells, the preferred embodiment applies leptin only, MPA only and MPA+leptin on liver cancer cells for 24 hours and a flow cytometry is used to show their effects on cell cycle. Furthermore, sub-G1/apoptosis parts in the cell cycle are analyzed through student's t-test.

[1] = tested on: cleaved caspase 3, cleaved caspase 7 and cleaved PARP; test: Western blotting of apoptosis-related proteins; assay type: cell-based; settings: 24 hours
Method: Please refer to FIG. 7, which is a view showing effect of MPA+leptin on related proteins for apoptosis. As shown in the figure, through analysis on liver cancer cells after applied with MPA+leptin for 24 hours, observation is done with a focus on changes of their related proteins for apoptosis. When different doses of MPA are combined with different doses of leptin for treatment for 24 hours, cellular proteins of anti-cleaved caspase 3, anti-cleaved caspase 7 and anti-cleaved Poly-ADP-ribose-polymerase (PARP) are processed with western blotting.

[2] = target: T1, leptin receptor and progesterone receptor (Homo sapiens, UniProt P06401); test: Immunoprecipitation and immunofluorescent staining, receptor interaction; assay type: cell-based
T1 construct: endogenous in cells
T1 sequence (P06401 1-933): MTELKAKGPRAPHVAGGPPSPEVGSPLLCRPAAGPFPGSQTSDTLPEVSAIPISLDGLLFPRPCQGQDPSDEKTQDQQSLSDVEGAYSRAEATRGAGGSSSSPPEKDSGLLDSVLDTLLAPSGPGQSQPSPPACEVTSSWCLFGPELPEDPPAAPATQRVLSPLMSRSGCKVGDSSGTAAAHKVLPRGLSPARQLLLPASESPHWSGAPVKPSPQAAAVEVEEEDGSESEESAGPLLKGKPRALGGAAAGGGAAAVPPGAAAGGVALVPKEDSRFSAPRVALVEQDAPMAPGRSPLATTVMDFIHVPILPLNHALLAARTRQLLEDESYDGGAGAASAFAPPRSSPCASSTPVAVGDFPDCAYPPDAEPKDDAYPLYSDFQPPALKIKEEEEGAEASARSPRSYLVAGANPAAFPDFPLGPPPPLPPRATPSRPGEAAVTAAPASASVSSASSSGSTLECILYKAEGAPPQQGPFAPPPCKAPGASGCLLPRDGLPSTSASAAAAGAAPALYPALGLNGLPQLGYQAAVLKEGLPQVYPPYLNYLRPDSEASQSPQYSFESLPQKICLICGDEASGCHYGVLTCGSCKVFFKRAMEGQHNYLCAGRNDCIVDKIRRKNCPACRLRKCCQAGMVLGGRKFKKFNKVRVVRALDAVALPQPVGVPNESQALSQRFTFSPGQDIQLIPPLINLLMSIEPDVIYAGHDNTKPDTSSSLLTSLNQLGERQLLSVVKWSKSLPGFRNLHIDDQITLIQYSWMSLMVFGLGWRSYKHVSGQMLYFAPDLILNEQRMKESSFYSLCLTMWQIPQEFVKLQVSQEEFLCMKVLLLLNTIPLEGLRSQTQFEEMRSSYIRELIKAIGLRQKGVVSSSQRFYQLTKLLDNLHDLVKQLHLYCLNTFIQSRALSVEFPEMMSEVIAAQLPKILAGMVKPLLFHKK
T1 sequence (P48357 22-1165 partner): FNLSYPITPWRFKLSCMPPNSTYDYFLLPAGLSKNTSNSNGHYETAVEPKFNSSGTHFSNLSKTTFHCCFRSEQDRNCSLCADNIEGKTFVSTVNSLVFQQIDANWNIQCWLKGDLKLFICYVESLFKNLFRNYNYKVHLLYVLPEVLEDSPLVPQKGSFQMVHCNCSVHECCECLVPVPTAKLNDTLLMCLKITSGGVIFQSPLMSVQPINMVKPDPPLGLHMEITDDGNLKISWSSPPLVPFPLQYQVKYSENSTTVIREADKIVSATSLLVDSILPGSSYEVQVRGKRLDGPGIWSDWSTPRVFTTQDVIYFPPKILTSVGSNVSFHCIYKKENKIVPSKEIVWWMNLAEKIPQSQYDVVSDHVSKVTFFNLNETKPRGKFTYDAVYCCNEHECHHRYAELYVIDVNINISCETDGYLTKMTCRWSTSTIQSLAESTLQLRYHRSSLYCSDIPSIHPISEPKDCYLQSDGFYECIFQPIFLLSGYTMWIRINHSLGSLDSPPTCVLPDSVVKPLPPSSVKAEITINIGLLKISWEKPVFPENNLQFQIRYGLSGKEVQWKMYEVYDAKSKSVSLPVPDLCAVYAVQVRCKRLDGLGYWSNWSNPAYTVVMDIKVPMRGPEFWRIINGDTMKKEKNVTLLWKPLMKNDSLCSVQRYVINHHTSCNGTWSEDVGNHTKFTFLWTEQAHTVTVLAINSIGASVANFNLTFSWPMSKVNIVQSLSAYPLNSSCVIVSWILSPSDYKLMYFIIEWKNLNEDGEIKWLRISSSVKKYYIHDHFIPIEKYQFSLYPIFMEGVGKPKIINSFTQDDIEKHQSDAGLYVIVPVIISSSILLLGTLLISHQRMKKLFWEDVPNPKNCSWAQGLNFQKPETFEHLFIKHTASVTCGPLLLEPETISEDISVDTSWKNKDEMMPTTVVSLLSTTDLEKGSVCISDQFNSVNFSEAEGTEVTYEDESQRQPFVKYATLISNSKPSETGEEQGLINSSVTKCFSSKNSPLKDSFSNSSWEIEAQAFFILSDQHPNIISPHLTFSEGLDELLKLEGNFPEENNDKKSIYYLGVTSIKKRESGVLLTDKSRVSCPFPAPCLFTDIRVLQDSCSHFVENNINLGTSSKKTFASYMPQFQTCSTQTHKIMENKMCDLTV
Method: Please refer to FIG. 8A and FIG. 8B, which are views showing interaction between a leptin receptor and a progesterone receptor through immunoprecipitation and immunofluorescent staining. As shown in the figures, for acknowledging interaction between a leptin receptor and a progesterone receptor, cellular proteins are processed through immunoprecipitation and western blotting with anti-pgR after liver cancer cells are applied with leptin only, MPA only and MPA+leptin for 30 minutes separately. […] The same results are shown through immunofluorescent staining. After the cells are processed for 10 minutes, the progesterone receptor is dyed with FITC; the leptin receptor is dyed with Texas-Red; and cell membrane is dyed with phalloidin, which are observed with fluoresce microscope under 40×. […] Thus, it is confirmed that the leptin receptor and the progesterone receptor interact to work on the liver cancer cells.

CC(=O)O[C@]1(C(C)=O)CC[C@H]2[C@@H]3C[C@H](C)C4=CC(=O)CC[C@]4(C)[C@H]3CC[C@@]21C [MPA, medroxyprogesterone acetate]
association of patient's survival rate with MPA treatment after surgery (liver cancer patients): did not find significant association | G1 and G2/M (liver cancer cells): decreased trend | S (liver cancer cells): increased trend | sub-G1 (liver cancer cells): increasing trend | activation of cleaved caspase 3/7 and cleaved PARP [1]: obviously activated | merged level between leptin receptor and progesterone receptor ([2]; 10 minutes, immunofluorescent staining): some of the leptin receptor are merged with some of the progesterone receptor | interaction of leptin receptor and progesterone receptor ([2]; 30 minutes, immunoprecipitation and western blotting with anti-pgR): interacted
